Results reported in publication PMC7756445, “A Novel Prodrug of a nNOS Inhibitor with Improved Pharmacokinetic Potential” (Chemmedchem, 2020).
Read-outs that look alike come from different tables or passages of the source.

Columns and labels:
mARC2 = target: T1, mARC2 (Homo sapiens, UniProt Q969Z3); assay: Bioconversion with the mARC enzyme system (UV/Vis NADH assay, LC-MS); type: in vitro ADME; conditions: for conversion to reduced amidine 1 (LC-MS): mARC2 incubation
T1 sequence (Q969Z3 36-335): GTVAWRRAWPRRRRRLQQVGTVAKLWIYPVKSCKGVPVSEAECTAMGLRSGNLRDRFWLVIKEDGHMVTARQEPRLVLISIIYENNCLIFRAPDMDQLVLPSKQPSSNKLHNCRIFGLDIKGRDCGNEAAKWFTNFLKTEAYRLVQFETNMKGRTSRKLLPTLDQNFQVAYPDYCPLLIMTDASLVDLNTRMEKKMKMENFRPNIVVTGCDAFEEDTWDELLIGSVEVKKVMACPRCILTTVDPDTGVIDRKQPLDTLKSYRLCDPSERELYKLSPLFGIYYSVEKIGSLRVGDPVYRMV
Protocol: (§1) The turnover rate of the amidoxime 2 was tested by an enzymatic NADH assay ^[38] with the mARC enzyme system in comparison to the model substrate benzamidoxime (BAO).
(§2) Due to this known in vivo studies and to other known prodrugs which are activated by mARC, for example, upamostat and ximelagatran, ^[38] it can be expected that the amidoxime prodrug 2 will also be converted extensively in vivo, and is thus a very suitable prodrug for the amidine 1 and making it orally available.
(§3) The assay was performed as previously described. ^[38] The proteins were dissolved in 20 mM of 2‐(N‐morpholino)ethanesulfonic acid (MES) buffer (pH 6.0) in disposable micro UV cuvettes. Each batch contained 15 μg human mARC, 7 μg B5 and 0.16 μg B5R. The enzymes were preincubated with the respective substrate (concentration 3 mM) for 3 min at 37 °C (total volume 240 μL). This mixture was measured as blank value and immediately mixed with 60 μL NADH (concentration 1 mM). The kinetics were measured over a period of 15 min at 37 °C, with absorption between 300 and 400 nm being measured at intervals of 30 sec. The measurement was stopped when the absorption stopped changing. The measurements were taken with a Varian Cary® 50 UV/Vis spectrophotometer from Agilent, which was tempered with a Varian Cary® PCB‐150 Peltier Controlled Cryobath. The samples were mixed with cold methanol and centrifuged for 5 min at 10 000 rpm, Swing‐out Rotor, and stored at −80 °C for further analysis.
(§4) A Bruker Amazon SL Ion Trap with upstream Agilent 1260 HPLC system was used with a Waters Xterra MS C8, 4.6×50 mm, 3.5 μm column, with Phenomenex, Security Guard C18 precolumn 3×4 mm. A gradient was employed with eluent A: 0.1 % acetic acid Suprapur, Merck, in Aqua Bidest, eluent B: CH3CN, Sigma Aldrich Chromasolv for gradient HPLC. The gradient was changed from 97 % A to 100 % B within 10 min. The injection volume was 1 μL and 10 μL respectively. The column temperature was 20 °C. Software of the HPLC: Hystar 3.2 SR 2. Software to control the mass spectrometer: Bruker Trap Control 7.0 Software to evaluate the data: Bruker Data Analysis 4.0.

mARC1 = target: T2, mARC1 (Homo sapiens, UniProt Q5VT66); assay: as above; type: in vitro ADME; conditions: for conversion to reduced amidine 1 (LC-MS): mARC1 incubation
T2 sequence (Q5VT66 41-337 limits assumed): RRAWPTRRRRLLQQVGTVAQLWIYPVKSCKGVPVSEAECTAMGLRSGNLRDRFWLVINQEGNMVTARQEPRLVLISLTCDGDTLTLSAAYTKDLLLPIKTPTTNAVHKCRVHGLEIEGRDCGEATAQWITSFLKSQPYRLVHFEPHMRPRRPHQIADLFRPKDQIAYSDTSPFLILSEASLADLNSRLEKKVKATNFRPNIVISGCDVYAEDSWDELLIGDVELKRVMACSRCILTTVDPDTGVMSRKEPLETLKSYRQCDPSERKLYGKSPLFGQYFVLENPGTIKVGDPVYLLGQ
Protocol: as §1, §2, §3, §4

[1] = Log D and log P by shake-flask method; type: physicochemical; conditions: n-octanol/aqueous buffer
Text: The herein presented amidoxime 2 was designed as prodrug of the amidine 1 to improve membrane permeability and oral bioavailability. In this context, the deepening of the physicochemical properties is essential to obtain a favorable pharmacological profile. Therefore, we investigated the lipophilicity, the passive permeation through the human GI tract through the PAMPA assays, and the chemical and enzymatic stabilities in simulated GI fluids and plasma. […] In this study, the lipophilicity of our compounds was determined by means of the “shake‐flask method” and compared to the corresponding values calculated by the software. ^[43] However, for ionizable compounds, the distribution coefficient (log D) should be used instead of log P in the pH range where ionic species exist. ^[44] In this study, log P and log D were calculated (Table 1).
The column was a Waters Symmetry RP‐C18 column (4.6×150 mm, 5 μm). The mobile phase was a mixture of TFA 0.01 M/ACN/(MeOH/THF 90 : 10) 20/52/28 and the flow rate was 0.7 mL/min. The UV detector was set at a length of 254 nm.
Both n‐octanol and aqueous buffer (pH 1.4, 6.5 and 9.4) solutions were saturated of each other. 2 mg of tested compound was dissolved in 500 μL of organic phase and mixed with an equal volume of aqueous buffer by repeated inversions of up to 200 times for 5 min and then allowed to stand for 30 min for the phases to fully separate. Thereafter, the respective phases were analyzed by HPLC.

[2] = Stability in human plasma; type: in vitro ADME; conditions: 37 °C
Protocol: Finally, the stability in human plasma was assessed.
Human plasma was purchased from 3H Biomedical (Uppsala, Sweden). For the determination of enzymatic stability in human plasma, the reactions were initiated by adding 50 μL of compound stock solution to 450 μL of pre‐heated plasma, and incubated at 37±0.5 °C. At appropriate time intervals, 50 μL of the plasma were taken and deproteinized by the addition of 450 μL of CH3CN. After mixing and centrifugation for 10 min at 10 000 rpm, the supernatant (5 μL) was analyzed by HPLC, adopting the same chromatographic conditions described for chemical stability evaluations. ^[48]

C/C(=N\O)NC(c1ccccc1)c1ccccc1 [Compound 2, (1E)‐N‐(diphenylmethyl)‐N′‐hydroxyethanimidamide]
conversion to reduced amidine 1 (LC-MS) (mARC2): could be found
conversion to reduced amidine 1 (LC-MS) (mARC2; listed as amidoxime): completely converted
turnover rate (NADH consumption) compared with BAO (mARC2; mARC2 with B5 and B5R, substrate 3 mM, pH 6.0, 37 °C): very similar
conversion to reduced amidine 1 (LC-MS) (mARC1): could be found
conversion to reduced amidine 1 (LC-MS) (mARC1; listed as amidoxime): completely converted
turnover rate (NADH consumption) compared with BAO (mARC1; mARC1 with B5 and B5R, substrate 3 mM, pH 6.0, 37 °C): clearly identical
logD ([1]; pH 1.4, n-octanol/aqueous buffer pH 1.4, mean ± SD of three, read-out: log D 1.4): -0.16
logD ([1]; pH 1.4, pH 1.4 to 9.4, range stated in text, read-out: log D values over the pH values tested): -0.16 to 0.39
logD ([1]; pH 6.5, n-octanol/aqueous buffer pH 6.5, mean ± SD of three, read-out: log D 6.5): 0.29
logD ([1]; pH 9.4, n-octanol/aqueous buffer pH 9.4, mean ± SD of three, read-out: log D 9.4): 0.39
logP ([1]; shake-flask, as free amine, mean ± SD of three): 3.24
stability in human plasma [2]: stable
